In general, pKa refers to the negative logarithm of the acid dissociation constant.

A short description of data set [1]: Determination of pKa value of monomer having hydrophilic group by NaOH titration.
Procedure: (§1) In a water/acetone mixture (10/15 ml) solution was poured 0.7865 g of CH2═CHCH2C(CF3)2OH, followed by stirring at room temperature. After it was confirmed that the solution was homogeneous, titration was carried out with about 0.2 mol/L NaOH solution. A titration curve was obtained by adding the NaOH solution dropwise in increments of 0.15 ml and recording a pH value at every addition. An equivalence point was determined by an inflection point (maximum differential value of titration curve=dpH/dml) of the titration curve.
[2] abbreviates: water/acetone mixture, pKa, monomer having hydrophilic group used in the Preparation Example, corrected.
Where [3] appears, read: monomer having hydrophilic group used in the Preparation Example, NaOH titration in water/acetone, corrected.

“And” between values parts separate entries of the source, which are not always exact repeats. Equal entries are not always repeated.

Procedure for physchem: as §1

For the molecule `C=C(C(=O)O)C(F)(F)F` [2-(trifluoromethyl)acrylic acid], the pKa in data set [1] (setting [2]) was 3.9. `C=C(F)C(F)(F)OC(F)(C(F)(F)F)C(F)(F)OC(F)(CO)C(F)(F)F` (centres unmarked) [(1,1,9,9-tetrahydro-2,5-bistrifluoromethyl-3,6-dioxa-8-nonenol)]: in data set [1] (setting [3]), the pKa was 12.6. Take `C=CCC(O)(C(F)(F)F)C(F)(F)F` [CH2═CHCH2C(CF3)2OH, 1,1-bistrifluoromethyl-3-buten-1-ol]: the “pKa value (single titration)” value in data set [1] (NaOH titration in water/acetone, pH at half equivalence point minus blank difference) is 9.64 and 9.54. Also, the pKa came to 9.6 in data set [1] (water/acetone mixture, pKa value (decided from experiments carried out three times), NaOH titration in water/acetone); 9.69 in data set [1] (water/acetone mixture, pKa value (single titration), NaOH titration in water/acetone, pH at half equivalence point minus blank difference); 9.6 in data set [1] (setting [2]).

With `O=C(O)/C=C\C(=O)O` [Maleic acid], in data set [1] (setting [2]), the pKa amounted to 1.4. `C=C(F)C(F)(F)OC(F)(C(=O)O)C(F)(F)F` (centres unmarked) [perfluoro-(6,6-dihydro-2-trifluoromethyl-3-oxa-5-hexenoic acid)] showed a pKa in “physchem” of 3.4.

Regarding `C=C(F)C(F)(F)OC(F)(C(F)(F)F)C(F)(F)OC(F)(C(=O)O)C(F)(F)F` (centres unmarked) [perfluoro-(9,9-dihydro-2,5-bistrifluoromethyl-3,6-dioxa-8-nonenoic acid)], the pKa in data set [1] (setting [3]) is listed as 3.6. In turn, `C=C(F)C(F)(F)OC(F)(C(F)(F)F)C(F)(F)OC(F)(C(F)(F)F)C(F)(F)OC(F)(C(=O)O)C(F)(F)F` (centres unmarked) [perfluoro-(12,12-dihydro-2,5,8-tristrifluoromethyl-3,6,9-trioxa-11-dodecenic acid)] returned a pKa in data set [1] (setting [3]) of 3.8.

As to `C=C(F)C(F)(F)OC(F)(C(F)(F)F)C(F)(F)OC(F)(C(F)(F)F)C(F)(F)OC(F)(C(F)(F)F)C(F)(F)OC(F)(C(=O)O)C(F)(F)F` (centres unmarked) [perfluoro-(15,15-dihydro-2,5,8,11-tetrakistrifluoromethyl-3,6,9,12-tetraoxa-14-pentadecenic acid)], the pKa in data set [1] (setting [3]) stood at 4.0.

Values taken from patent US20070196763A1, “Method of forming laminated resist” (DAIKIN INDUSTRIES, LTD., priority 2003, published 2007).
